Assays:
human PBMCs = assay: Human PBMC cytokine response assay (IFN-γ and IFN-α in cell-free medium by ELISA), with or without cPLGA; assay type: cell-based;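 as to IFN-α (pg/ml) mean: 20 µg/mL compound for 24 hours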;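 as to IFN-γ (pg/ml) mean: 20 µg/mL compound for 24 hours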
PBMCs = assay: Human PBMC proliferation assay (3H-thymidine incorporation); assay type: cell-based; conditions: Experiment A; for mean cpm: 2 μg/ml
CD19+ B cells = assay: Human B cell proliferation assay (3H-thymidine incorporation)
[1] = donor 28066, 20 ug/ml, 24 h, + PLGA = premixed with 100 μg/ml cPLGA
[2] = donor 28067, 20 ug/ml, 24 h, + PLGA = premixed with 100 μg/ml cPLGA
[3] = donor 28068, 20 ug/ml, 24 h, + PLGA = premixed with 100 μg/ml cPLGA
[4] = mean of donors 28065-28068, 20 ug/ml, 24 h, + PLGA = premixed with 100 μg/ml cPLGA
[5] = B cells, Donor 146, 2 μg/ml, Experiment A
[6] = B cells, Donor 147, 2 μg/ml, Experiment A
[7] = Table 24, mean of donors 28234-28237
[8] = Table 25, mean of donors 28250-28253

Which results are given for “5′-TGCTGC-3′-HEG-5′-AGCTTGC-3′-HEG-5′-AGATGAT-3′ [Compound M-1, reference compound]”?
IFN-α (human PBMCs; Table 10, donor 28042): 0 pg/mL; IFN-γ (human PBMCs; Table 10, donor 28042): 45 pg/mL; IFN-α (human PBMCs; Table 10, donor 28043): 0 pg/mL; IFN-γ (human PBMCs; Table 10, donor 28043): 29 pg/mL; IFN-α (human PBMCs; Table 10, donor 28044): 13 pg/mL; IFN-γ (human PBMCs; Table 10, donor 28044): 7 pg/mL; IFN-α (human PBMCs; Table 10, donor 28045): 2 pg/mL; IFN-γ (human PBMCs; Table 10, donor 28045): 3 pg/mL; IFN-α mean (human PBMCs; Table 10, mean of donors): 4 pg/mL; IFN-γ mean (human PBMCs; Table 10, mean of donors): 21 pg/mL; IFN-γ (pg/ml) 28065 (human PBMCs; donor 28065 (high background), 20 ug/ml, 24 h, + PLGA = premixed with 100 μg/ml cPLGA, 1000 = outside assay limits): 157 pg/mL; IFN-α (pg/ml) 28065 (human PBMCs; donor 28065, 20 ug/ml, 24 h, + PLGA = premixed with 100 μg/ml cPLGA): 0 pg/mL; IFN-α (pg/ml) 28066 (human PBMCs; [1]): 0 pg/mL; IFN-γ (pg/ml) 28066 (human PBMCs; [1]): 1 pg/mL; IFN-α (pg/ml) 28067 (human PBMCs; [2]): 3 pg/mL; IFN-γ (pg/ml) 28067 (human PBMCs; [2]): 40 pg/mL; IFN-α (pg/ml) 28068 (human PBMCs; [3]): 0 pg/mL; IFN-γ (pg/ml) 28068 (human PBMCs; [3]): 2 pg/mL; IFN-α (pg/ml) mean (human PBMCs; [4]): 1 pg/mL; IFN-γ (pg/ml) mean (human PBMCs; [4]): 50 pg/mL; immunomodulatory activity (IFN-γ / IFN-α secretion), in words (human PBMCs; used alone (no cPLGA)): did not show activity; cpm1 (PBMCs; Donor 146, 2 μg/ml): 8753 cpm; cpm2 (PBMCs; Donor 146, 2 μg/ml): 5203 cpm; cpm3 (PBMCs; Donor 146, 2 μg/ml): 4496 cpm; mean cpm (PBMCs; Donor 146 mean): 6151 cpm; cpm1 (PBMCs; Donor 147, 2 μg/ml): 1034 cpm; cpm2 (PBMCs; Donor 147, 2 μg/ml): 3298 cpm; cpm3 (PBMCs; Donor 147, 2 μg/ml): 1674 cpm; mean cpm (PBMCs; Donor 147 mean): 2002 cpm; mean of both (PBMCs; mean of Donors 146 and 147, 2 μg/ml): 4076 cpm; B cell proliferation, in words (CD19+ B cells; 2 μg/ml, 48 h plus 8 h 3H-thymidine pulse): little to no B cell proliferation; cpm1 (CD19+ B cells; [5]): 1514 cpm; cpm2 (CD19+ B cells; [5]): 2815 cpm; cpm3 (CD19+ B cells; [5]): 1173 cpm; mean cpm (CD19+ B cells; B cells, Donor 146 mean, 2 μg/ml, Experiment A): 1834 cpm; cpm1 (CD19+ B cells; [6]): 1679 cpm; cpm2 (CD19+ B cells; [6]): 1667 cpm; cpm3 (CD19+ B cells; [6]): 1436 cpm; mean cpm (CD19+ B cells; B cells, Donor 147 mean, 2 μg/ml, Experiment A): 1594 cpm; mean of both (CD19+ B cells; B cells, mean of Donors 146 and 147, 2 μg/ml, Experiment A): 1714 cpm

“(5′-TCGACGT-3′-HEG)2-glycerol-HEG-5′-TCGACGT-3′ [Compound C-101]” was tested. Which IFN-α (human PBMCs; Example 58, 0.8 ug/ml, donor 1) did it give?
Its IFN-α is 52 pg/mL.

And the IFN-α (human PBMCs; Example 58, 0.8 ug/ml, donor 2)?
Its IFN-α is 52 pg/mL.

And the IFN-α (human PBMCs; Example 58, 0.8 ug/ml, donor 3)?
The IFN-α was 52 pg/mL.

And the IFN-α (human PBMCs; Example 58, 0.8 ug/ml, donor 4)?
The IFN-α was 52 pg/mL.

What about the IFN-α mean (human PBMCs; Example 58, 0.8 ug/ml, mean of four individuals) of the same substance?
Its IFN-α mean is 52 pg/mL.

What about the IFN-α (human PBMCs; Example 58, 4 ug/ml, donor 1) of the same substance?
The IFN-α was 52 pg/mL.

What about the IFN-α (human PBMCs; Example 58, 4 ug/ml, donor 2) of the same substance?
The IFN-α was 52 pg/mL.

And the IFN-α (human PBMCs; Example 58, 4 ug/ml, donor 3)?
Its IFN-α is 59 pg/mL.

What about the IFN-α (human PBMCs; Example 58, 4 ug/ml, donor 4) of the same substance?
Its IFN-α is 204 pg/mL.

What about the IFN-α mean (human PBMCs; Example 58, 4 ug/ml, mean of four individuals) of the same substance?
The IFN-α mean was 92 pg/mL.

And the IFN-α (human PBMCs; Example 58, 20 ug/ml, donor 1)?
Its IFN-α is 2330 pg/mL.

And the IFN-α (human PBMCs; Example 58, 20 ug/ml, donor 2)?
Its IFN-α is 109 pg/mL.

And the IFN-α (human PBMCs; Example 58, 20 ug/ml, donor 3)?
The IFN-α was 215 pg/mL.

And the IFN-α (human PBMCs; Example 58, 20 ug/ml, donor 4)?
The IFN-α was 157 pg/mL.

And the IFN-α mean (human PBMCs; Example 58, 20 ug/ml, mean of four individuals)?
The IFN-α mean was 703 pg/mL.

What about the IFN-α (human PBMCs; Example 59, 0.8 ug/ml, donor 48) of the same substance?
The IFN-α was 102 pg/mL.

What about the IFN-α (human PBMCs; Example 59, 0.8 ug/ml, donor 177) of the same substance?
Its IFN-α is 102 pg/mL.

And the IFN-α (human PBMCs; Example 59, 0.8 ug/ml, donor 272)?
The IFN-α was 185 pg/mL.

What about the IFN-α (human PBMCs; Example 59, 0.8 ug/ml, donor 273) of the same substance?
The IFN-α was 102 pg/mL.

And the IFN-α mean (human PBMCs; Example 59, 0.8 ug/ml, mean of four donors)?
Its IFN-α mean is 123 pg/mL.

And the IFN-α (human PBMCs; Example 59, 4 ug/ml, donor 48)?
The IFN-α was 818 pg/mL.

And the IFN-α (human PBMCs; Example 59, 4 ug/ml, donor 177)?
The IFN-α was 3631 pg/mL.

What about the IFN-α (human PBMCs; Example 59, 4 ug/ml, donor 272) of the same substance?
The IFN-α was 604 pg/mL.

What about the IFN-α (human PBMCs; Example 59, 4 ug/ml, donor 273) of the same substance?
Its IFN-α is 102 pg/mL.

What about the IFN-α mean (human PBMCs; Example 59, 4 ug/ml, mean of four donors) of the same substance?
The IFN-α mean was 1289 pg/mL.

What about the IFN-α (human PBMCs; Example 59, 20 ug/ml, donor 48) of the same substance?
Its IFN-α is 2212 pg/mL.

What about the IFN-α (human PBMCs; Example 59, 20 ug/ml, donor 177) of the same substance?
The IFN-α was 4277 pg/mL.

And the IFN-α (human PBMCs; Example 59, 20 ug/ml, donor 272)?
Its IFN-α is 642 pg/mL.

And the IFN-α (human PBMCs; Example 59, 20 ug/ml, donor 273)?
The IFN-α was 102 pg/mL.

And the IFN-α mean (human PBMCs; Example 59, 20 ug/ml, mean of four donors)?
The IFN-α mean was 1808 pg/mL.

What about the “IFN-α induction (FIG. 10), in words” value (human PBMCs; PBMCs from 8 donors, 20 μg/ml, 24 h) of the same substance?
Its value is “induce high levels of IFN-α”.

What about the IFN-α (human PBMCs; Table 24, donor 28234) of the same substance?
The IFN-α was 16 pg/mL.

What about the IFN-γ (human PBMCs; Table 24, donor 28234) of the same substance?
The IFN-γ was 14 pg/mL.

What about the IFN-α (human PBMCs; Table 24, donor 28235) of the same substance?
Its IFN-α is 249 pg/mL.

What about the IFN-γ (human PBMCs; Table 24, donor 28235) of the same substance?
Its IFN-γ is 205 pg/mL.

And the IFN-α (human PBMCs; Table 24, donor 28236)?
Its IFN-α is 1354 pg/mL.

And the IFN-γ (human PBMCs; Table 24, donor 28236)?
The IFN-γ was 627 pg/mL.

And the IFN-α (human PBMCs; Table 24, donor 28237)?
The IFN-α was 8566 pg/mL.

What about the IFN-γ (human PBMCs; Table 24, donor 28237) of the same substance?
Its IFN-γ is 2612 pg/mL.

What about the IFN-α mean (human PBMCs; [7]) of the same substance?
Its IFN-α mean is 2546 pg/mL.

And the IFN-γ mean (human PBMCs; [7])?
The IFN-γ mean was 865 pg/mL.

What about the IFN-a (human PBMCs; Table 25, donor 28250) of the same substance?
Its IFN-a is 540 pg/mL.

What about the IFN-g (human PBMCs; Table 25, donor 28250, polynucleotides/spacers at amounts equivalent to the CIC, spacers alone 9 uM) of the same substance?
The IFN-g was 224 pg/mL.

What about the IFN-a (human PBMCs; Table 25, donor 28251) of the same substance?
Its IFN-a is 1472 pg/mL.

And the IFN-g (human PBMCs; Table 25, donor 28251)?
Its IFN-g is 63 pg/mL.

And the IFN-a (human PBMCs; Table 25, donor 28252)?
Its IFN-a is 509 pg/mL.

What about the IFN-g (human PBMCs; Table 25, donor 28252) of the same substance?
The IFN-g was 180 pg/mL.

And the IFN-a (human PBMCs; Table 25, donor 28253)?
Its IFN-a is 2645 pg/mL.

What about the IFN-g (human PBMCs; Table 25, donor 28253) of the same substance?
The IFN-g was 146 pg/mL.

What about the IFN-a mean (human PBMCs; [8]) of the same substance?
The IFN-a mean was 1291 pg/mL.

And the IFN-g mean (human PBMCs; [8])?
The IFN-g mean was 153 pg/mL.

What about the “B cell proliferation (FIG. 11), in words” value (CD19+ B cells; purified human B cells, 5 μg/ml, 96 h) of the same substance?
Its value is “induce very little B cell proliferation”.
